The values that follow come from patent US20100310574A1, “METHODS AND COMPOSITIONS FOR THE TREATMENT AND DIAGNOSIS OF STATIN-INDUCED MYOPATHY” (Beth Israel Deaconess Medical Center, priority 2007, published 2010).

The nature of series [1]: Clinical data (CK) of statin-treated patients who gave muscle biopsies. In kind it is in vivo, human. The note with it: patient with muscle pain/damage concomitantly treated with the statin; one patient per line. The method, then: The atrogin-1 mRNA levels were measured in 17 human quadriceps muscle biopsies from five patients undergoing knee replacements (controls), from four patients with muscle pain but not being treated with statins, and from eight patients with muscle pain/damage concomitantly being treated with statins (the table below).
Muscle biopsies: Muscle was obtained from three groups of patients whose characteristics are detailed in the above table. The statin-treated group included four subjects with statin-induced myopathy and 4 with statin-induced rhabdomyolysis, as commonly defined (Antons et al., Am. J. Med. 119:400-409, 2006). The non-statin myopathy group included four statin-naïve subjects with undefined myopathy. Both of these groups underwent percutaneous muscle biopsies of the vastus lateralis muscle using a Bergstrom needle. The control group included five statin-naïve subjects who volunteered muscle at the time of knee arthroplasty. Muscle from subjects in all three groups was snap frozen in liquid nitrogen for subsequent analysis. All subjects signed an IRB-approved consent form.

The conditions of series [2]: before withdrawal in August 2001; cited from earlier work.
Series [3] deals with differentiated C2C12 mouse myocytes. Put plainly: C2C12 myotube morphology and diameter. The format is cell-based. The text has this: The effect of statins on muscle cells was studied by treating differentiated C2C12 mouse myocytes with various concentrations of lovastatin. […] The reduction of myotube size was quantitated by measurement of myotube thickness. This effect was clearly visible at low lovastatin concentrations, in the range of those typically found in patients administered with this medication (Pan et al., J. Clin. Pharmacol. 30:797-801, 2002, and Hostein et al., Cancer Chemother. Pharmacol. 57:155-164, 2006).
Cell Culture: Mouse myoblast cell line C2C12 was purchased from ATCC (ATCC, Manassas, Va.) and maintained in DMEM (Mediatech, Herndon, Va.) containing 10% fetal bovine serum (Hyclone, Logan, Utah) and penicillin (100U) and streptomycin (50 ug/ml; Invitrogen, Grand Island, N.Y.). When C2C12 cells reach to 90% confluence, medium was replaced with differentiation medium of DMEM supplemented with 2% horse serum (ATCC, Manassas, Va.) to induce myotube formation. Cells were used for experiments in 4-5 days after differentiation. Lovastatin (>98% purity) (mevinolin; Sigma, St. Louis, Mo.) was prepared as a 50 mM stock solution in DMSO as reagent vehicle, further diluted in DMSO, and added into the medium. The final volume DMSO in medium is not more than 0.125%, which there is not obvious cytotoxicity. Equal volume of reagent vehicle was used for all experiments and reagent vehicle only serviced as controls. Each experiment was performed at least three times.
(§1) Myotube Fiber Size: Size was quantified by measuring a total of 200 tube diameters as described by Sandri et al. (supra). Briefly, muscle fiber size from four random fields at 100 magnification was measured using IMAGE software (Scion, Frederick, Md.). All data were expressed in Mean±S.E.M. Comparisons were made by using the Student's T-test, with p<0.05 being considered statistically significant.

The subject of series [4] is atrogin-1 mRNA. The experiment in a line: Atrogin-1 mRNA in C2C12 myocytes by real time PCR. The format is cell-based, mouse. The note with it: 10 μM. For orientation: Real-time PCR tracks product formation cycle by cycle.
Experimental: Quantitative PCR: Atrogin-1 mRNA levels were determined by real-time PCR using the Applied Biosystems® 7500 real-time PCR analyzer according to the method recently described by others (Okuno et al., Blood 100:4420-4426, 2002, and Yang et al., J. Cell Biochem. 94:1058-1067, 2005). Multiplexed amplification reactions were performed using 18S rRNA as an endogenous control (18S rRNA primers/VIC-labeled probe Applied Biosystems #4310893E) using the TaqMan One Step PCR Master Mix reagents Kit (#4309169, Applied Biosystems). The following settings were used: Stage 1 (reverse transcription): 48° C. for 30 min; Stage 2 (denaturation): 95° C. for 10 min; and Stage 3 (PCR): 95° C. for 15 sec and 60° C. for 60 sec for 40 cycles. […] Fluorescence data were analyzed by SDS1.7 software (Applied Biosykems). […] All RNA samples were analyzed in triplicate, with the mean value used in subsequent analyses.
Cell Culture: Mouse myoblast cell line C2C12 was purchased from ATCC (ATCC, Manassas, Va.) and maintained in DMEM (Mediatech, Herndon, Va.) containing 10% fetal bovine serum (Hyclone, Logan, Utah) and penicillin (100U) and streptomycin (50 ug/ml; Invitrogen, Grand Island, N.Y.). […]
Quantitative PCR: Performed as described above.
Series [5] deals with atrogin-1 protein. Put plainly: Atrogin-1 protein in C2C12 myotubes by Western blotting. In kind it is cell-based, mouse. The note with it: vs non-treated control cells. For orientation: In western blotting, separated proteins are transferred to a membrane and probed.
Experimental: Western Blotting Cultured cells after treatment were collected at specific times and solubilized in RIPA lysis buffer (50 mM Tris-HCl, pH 7.4; 150 mM NaCl, 1% NP-40, 0.5% sodium deoxycholate, 0.1% SDS (Boston Bioproducts, Boston Mass.), protease (Roche) and phosphatase (Sigma) inhibitor cocktail). […]
Series [6] deals with C2C12 myotubes. The experiment in a line: Proteolytic rate in C2C12 myotubes (3H-tyrosine release). The format is cell-based, mouse. As to conditions: compared with control cultures.
Experimental: Measurement of Proteolytic Rate: Differentiated C2C12 myotubes were incubated with ^3H-tyrosine (5 μCi/mL media) for 20 hours to label cell proteins, and switched to medium containing 2 mM unlabeled tyrosine, vehicle, lovastatin, or dexamethasone for another 20 hours. After media replacement, an aliquot of medium was collected once per hour for 4 hours. The collected media was treated with TCA (10% w/v final concentration) to precipitate protein. Since the high concentration of unlabeled tyrosine in the media prevents re-incorporation of ^3H-tyrosine into new protein, the radioactivity in the supernatant represent degraded protein from the pool of prelabeled, intracellular, long-lived proteins. Proteolytic rate was defined as the percentage of released radioactivity per hour calculated from the period of 20 hours to 24 hours of lovastatin or dexamethasone treatment, when ^3H-tyrosine release is linear over time. These rates were compared with proteolytic rates in parallel cultures treated with vehicle alone. All measurements were done in triplicate and then independently repeated at least twice.
Series [7] has as its system atrogin-1 wildtype primary myotubes. Put plainly: Myotube size, wildtype primary mouse myotubes. The format is cell-based. The note with it: control (wildtype) cultures, two days of exposure.
The subject of series [8] is atrogin-1 (−/−) myotubes. Put plainly: Myotube size, atrogin-1 (-/-) primary mouse myotubes. The format is cell-based. The note with it: 0.25 and 1.0 μM. Here is the method:
as §1
Cell Culture: Primary mouse myoblasts from atrogin-1 null mice (Regeneron, Tarrytown N.Y.) were isolated as follows: muscle was removed from the hind limbs of two-week old mice. After treatment with 0.1% collagenase D and Dispase II (Roche, Indianapolis, Ind.), the isolated cells were plated on collagen (Type I, Roche, Indianapolis, Ind.)-coated dishes. Myoblasts were subsequently enriched and cultured in F-10 nutrient medium with 20% fetal calf serum and 2.5 ng/ml bFGF (Invitrogen, Grand Island, N.Y.). Myotubes were induced in differentiation medium. All media contained 1× Primocin (InvivoGen, San Diego, Calif.). The cultures were maintained at 37° C., under 5% and 8% CO2 humidified air atmosphere for myoblasts and myotubes, respectively. Cultures were ready to use in assays on day 2 in differentiation medium when the myotubes had formed and were contracting.

Series [9] deals with Zebrafish embryos. Put plainly: Zebrafish embryo muscle fiber damage (myosin heavy chain staining). The format is in vivo, Danio rerio. The method, then:
Zebrafish embryos were treated with lovastatin from 20 hpf to 32 hpf at different concentrations (0-5 μM).
(§2) Zebrafish lines and maintenance: Adult zebrafish (Danio rerio) were maintained as described under standard laboratory conditions at 28.5° C. in a 14 h light/10 h dark cycle (Westerfield, “The zebrafish book: a guide for the laboratory use of zebrafish Danio (Brachydanio) rerio,” Institute of Neuroscience, University of Oregon, Eugene, Oreg., 1993). Developmental stages were determined by embryo morphology and hours post fertilization (hpf) (Kimmel et al., Dev. Dyn. 203:253-310, 1995). To examine the effects of statin, the embryos at 20-24 hpf were immersed in the embryonic water ([…], 170 μM KCl, 330 μM CaCl2, and 330 μM MgSO4) at a concentration of 0.005-10 μM lovastatin (Mevinolin; Sigma, St. Louis, Mo.) including 0.003% 1-phenyl-2-thiourea (Sigma) to inhibit pigmentation in 24 well plate. After 32 hpf, the embryos were fixed by 4% paraformaldehyde in PBS.
Antibody staining: Whole zebrafish staining: Zebrafish embryos were fixed by 4% paraformaldehyde in PBS overnight. After fixation, the embryos were washed by PBS, stored for at least 1 h at −20° C. in methanol, and permeabilized for 30 min at −20° C. in acetone. Embryos were incubated with blocking buffer (1% BSA, 0.1% Tween-20 in PBS), and incubated with diluted primary antibody, anti-slow twitch myosin F59 (1: 200; Developmental Studies Hybridoma Bank (DSHB), Department of Biological Sciences, University of Iowa, Iowa City, Iowa 52242) (Crow and Stockdale, Dev. Biol. 118:333-342, 1986; and Devoto et al., Development 122:3371-3380, 1996) in blocking solution for overnight at 4° C. Staining was detected by using goat anti-mouse TRITC secondary antibody (1:200; Southern Biotechnology Associates, Inc.) in blocking solution for 4 h at RT (Birely et al., Dev. Biol. 280:162-176, 2005). Cross-sectional staining: Embryos were fixed overnight in 4% paraformaldehyde (PFA) and cryoprotected by the overnight incubation with increasing concentrations of sucrose (up to 30%). Samples were embedded in OCT compound and then equilibrated to −80° C. Sections (10 μm thick) were collected on SuperFrost/Plus slides and dried. Sections were rehydrated in PBS and blocked for 1 h in blocking buffer (1% BSA, 0.1% Tween in PBS). Sections were incubated overnight at 4° C. with primary antibody diluted in blocking buffer. Sections were stained with antibody as above.

For series [10], the system named is zebrafish atrogin-1. The experiment in a line: Atrogin-1 mRNA and protein expression in zebrafish embryos. The format is in vivo, Danio rerio. As to conditions: lovastatin treatment. Here is the method:
as §2
Western blotting: Zebrafish embryos were homogenized in SDS sample buffer (30 embryos/30 μl of sample buffer) with microfuge pestle until the lysate became uniform in consistency and there was no longer stringy inside. The lysate was boiled for 5 minutes and centrifuged supernatant was processed for Western blotting (Hanai et al., J. Cell Biol. 158:529-539, 2002).

The subject of series [11] is phosphor-Akt, phosphor-FoxO3, and phosphor-p70S6K. The experiment in a line: Phosphorylated Akt/FoxO3/p70S6K in C2C12 myotubes (immunoblot). In kind it is cell-based, mouse. As to conditions: 1, 2.5 or 5 μM, 24 hours. Here is the method: Western Blotting Cultured cells after treatment were collected at specific times and solubilized in RIPA lysis buffer (50 mM Tris-HCl, pH 7.4; 150 mM NaCl, 1% NP-40, 0.5% sodium deoxycholate, 0.1% SDS (Boston Bioproducts, Boston Mass.), protease (Roche) and phosphatase (Sigma) inhibitor cocktail). Proteins were separated by SDS-PAGE, transferred to PVDF membranes and visualized by Western blotting using alkaline phosphatase-based CDP-star chemiluminescent detection according to manufacturer's protocol (Applied Biosystems, Bedford, Mass.).
(§3) The effect of lovastatin on FoxO-dependent activation of the atrogin-1 promoter in zebrafish embryos was also examined. Embryos were injected with a proximal fragment of the atrogin-1 promoter linked to luciferase or the same fragment with the FoxO site mutated (Sandri et al., Cell 117:399-412, 2004). Lovastatin (0.5 μM) stimulated the reporter luciferase activity more than 7-fold, while stimulating the FoxO-less reporter only 3-fold (FIG. 14B). […] Since lovastatin treatment still lead to a small amount of luciferase activity even in the absence of FoxO binding sites in the atrogin-1 promoter-reporter, additional signaling pathways may also be important in mediating the effects of statins on atrogin-1 expression in muscle.

Series [12] relates to atrogin-1 promoter. The experiment in a line: Atrogin-1 promoter luciferase reporter in zebrafish embryos. The format is in vivo, Danio rerio. As to conditions: 0.5 μM. Here is the method: as §3
A general note: A reporter such as luciferase makes a cellular process visible.

For series [13], the system named is functional mitochondria. Put plainly: MitoTracker staining and FACS of cells from zebrafish embryos. The format is in vivo, Danio rerio. As to conditions: lovastatin 0.5 or 1.0 μM. The method, then: Mitochondrial staining and FACS analysis: Embryos were treated with lovastatin (0, 0.5, 1.0 μM at 20-32 hpf) or treated with the combination of lovastatin (0.5 μM) following PGC-1α (or vehicle) cDNA injection (100 pg/embryo at the one-cell stage). 1-Phenyl-2-thiourea (0.003%; Sigma) was added at 20 hpf. After phenotypes were observed, 100 embryos from each condition were decholionated by protease and homogenized for 3-5 minutes in 0.9× phosphate buffered saline (PBS)/10% fetal bovine serum (FBS), then centrifuged at 3000 rpm for 5 minutes, digested with trypsin/EDTA and dispersed at room temperature. After adding 1 mL of 0.9×PBS/10% FBS, the dispersed cells were filtered ([…]) and washed twice with 0.9×PBS/10% FBS. The cells were incubated in 100 nM MitoTracker Red CMXRos (Invitrogen) in 0.9×PBS/10% FBS for 15 minutes in the dark. The cells were washed twice in 0.9×PBS/10% FBS and subjected to […] (FACS) analysis. EPICS XL (Beckman Coulter) was used for the fluorescence detection (absorption wavelength: 578 nm; emission wavelength: 599 nm) and data was analyzed with Expo32ADC software. Ten thousand cells were counted for each treatment condition.

Entries after “also recorded” stand apart in the source; their conditions may differ.

As for `CCC(C)(C)C(=O)O[C@H]1C[C@@H](C)C=C2C=C[C@H](C)[C@H](CC[C@@H]3C[C@@H](O)CC(=O)O3)[C@H]21` [simvastatin], in [1], the “CK (clinical data)” value was “Weakness, CK 51,080; also recorded: Weakness, CK 8,264; also recorded: Weakness, CK 39,000; also recorded: Muscle pain and weakness, CK 62; also recorded: Muscle pain and weakness, CK 649”.

In the case of `CC(C)c1c(C(=O)Nc2ccccc2)c(-c2ccccc2)c(-c2ccc(F)cc2)n1CC[C@@H](O)C[C@@H](O)CC(=O)O` [atorvastatin], the “CK (clinical data)” value in series [1] was “Muscle pain and weakness, CK 47; also recorded: Muscle pain and weakness, CK 73”.

For the molecule `COCc1c(C(C)C)nc(C(C)C)c(/C=C/[C@@H](O)C[C@@H](O)CC(=O)O)c1-c1ccc(F)cc1` [cerivastatin], in series [2], the rhabdomyolysis-related deaths result was “approximately 100”.

Regarding `CC[C@H](C)C(=O)O[C@H]1C[C@@H](C)C=C2C=C[C@H](C)[C@H](CC[C@@H]3C[C@@H](O)CC(=O)O3)[C@H]21` [lovastatin], the “CK (clinical data)” value in series [1] was “Weakness, CK 932”. Besides, the loss of myotubes entry in series [3] (by 5 days) is “almost complete loss of myotubes”. Moreover, in series [3] (increasing concentrations (0-10 μM) vs vehicle), the “myotube morphology / thickness” value is “myotubes became progressively thinner”. In addition, the “treatment time after which morphological changes were visible” value in [3] (myotube cultures) was 24 hours. In series [4] (6 hours), the “atrogin-1 mRNA” value was “significantly increased”. In series [4] (36 hours), the “atrogin-1 mRNA induction” value is no more than 6 fold. The “atrogin-1 induction (protein)” value in series [5] (1.0 μM, 48 hours) was “about 1.5 fold”. The “atrogin-1 induction (protein)” value in series [5] (10 μM) is on record as “about 2.5 fold”. The “increase in the rate of bulk muscle proteolysis” value in series [6] was 5-10%. For the same molecule, in [7], the “decrease of tube diameter” value was no more than 50%. The “change in myotube size” value in series [8] is listed as “Little change in myotube size”. For the same molecule, the muscle phenotype entry in series [9] (0-5 μM, 20 hpf to 32 hpf) is recorded as “clear dose-dependent muscle phenotypes”. Besides, the “embryos with class 1 defects” value in [9] (0.05 μM) is “more than 50%”. Moreover, the “embryos with class 3 changes” value in series [9] (5 μM) is given as “over 60%”. In addition, in [9] (20 hpf to 32 hpf), the “concentration giving class 1 changes (bowing, gap formation, fiber disruption)” value was 25 to 50 nM; the “concentration giving class 2 changes (fiber thinning, attenuated MHC staining)” value was 50 to 500 nM; the “concentration giving class 3 changes (irregular somite boundaries)” value lay within 1000 to 5000 nM. Further, the “zebrafish atrogin-1 mRNA and protein level” value in [10] was “clearly and dose-dependently elevated”. In [11], the phosphorylated signaling intermediates entry is recorded as “dose-dependent reduction”. Besides, the “stimulation of reporter luciferase activity” value in series [12] (FoxO-less (FoxO site mutated) reporter) is reported as 3 fold. Also, the “stimulation of reporter luciferase activity” value in series [12] (atrogin-1 promoter fragment with FoxO site) is listed as “more than 7 fold”. The MitoTracker fluorescence intensity entry in [13] was “shifted to the left”.
